How the values were obtained:
[1] = tested on: pellicle and plaque growth on extracted human teeth and plastic strip; test: Inhibition of plaque/pellicle formation on extracted human teeth (mounted on polymethylmethacrylate strip) with composition added to the media (Example 20 procedure); parameters: species or system human saliva / human teeth; details: for pellicle and plaque formation/inhibition on the teeth: 0.1 ml of 1% by weight in distilled water added to about 200 ml media, second 24 h at about 37° C
Method: A set of three extracted human teeth without the roots is mounted on a polymethylmethacrylate plastic strip of about 1 inch × 3 inches. A drop of human saliva is applied to each tooth and allowed to dry. The set of teeth is then placed in a petri dish and covered with about 200 ml of an aqueous solution of about 2% trypticase and about 4% sucrose. The dish is then inoculated with an additional 1 ml of human saliva and then incubated at about 37° C for about 24 hours.
Next, the set of teeth is removed from the media, rinsed, and then dipped into a 0.5% aqueous solution of FD & C RED No. 3 to visually disclose the plaque.
The teeth are then brushed with water using an electric toothbrush fitted with a soft nylon brush until all of the red disclosed plaque and/or pellicle is removed.
The teeth are then swabbed with human saliva, placed in a petri dish covered with about 200 ml of the trypticase-sucrose media and about 0.1 ml of a composition containing 1% by weight DL-N-carboxymethylmethyl-N,N-dimethyl-N-(3-palmitamidopropyl) ammonium betaine and the remainder being distilled water. The contents of the dish are then inoculated with an additional 1 ml of saliva and incubated for about 24 hours at about 37° C. At the end of the 24 hours, the set of teeth is removed from the media, dried, and dipped into a 0.5% FE & C RED No. 3 solution for about 60 seconds to visually disclose the presence of pellicle and plaque and is then rinsed under tap water.

[2] = tested on: plaque and pellicle formation; test: Observed plaque/pellicle retardation (general statements, test not specified at the place); details: for plaque inhibition activity: various compositions with about 5% betaine, including (isostearic) 24% glycerin, 1% propylene glycol, 0.75% carboxymethyl cellulose, 69.25% water
[3] = tested on: plaque and pellicle growth on extracted human teeth; test: Inhibition of plaque/pellicle redeposition on extracted human teeth brushed with the composition, then incubated with saliva (Example 1A procedure)
Method: A set of three extracted human teeth without the roots is mounted on a plastic strip of about 1 inch × 3 inches. The teeth are then swabbed with human saliva using a sterile Dacron swab and allowed to dry for about 15 minutes. The strip is then placed in a petri dish and covered with about 200 ml of an aqueous solution of about 2% trypticase and about 4% sucrose. Each dish is then inoculated with an additional 1 ml of human saliva and then incubated at about 37° C for about 24 hours.
Next, the set of teeth is removed from the media, dried, and then dipped into a 0.5% aqueous solution of FD & C RED No. 3 to visually disclose the plaque. The strip is then rinsed under tap water.
The teeth are then brushed with an electric toothbrush […], […], until all of the red disclosed plaque is removed and are then rinsed.
The teeth are then again swabbed with human saliva, placed in a petri dish covered with the trypticase-sucrose media, which is then inoculated with an additional 1 ml of saliva and incubated for about 24 hours at about 37° C. At the end of the 24 hours, the set of teeth is removed from the media, dried, and dipped into a 0.5% FD & C RED No. 3 solution for about 60 seconds to visually disclose the presence of plaque and is then rinsed under tap water.
All of the above examples employed new sets of teeth or plastic strips and new brushes for the brushing, respectively. Any NaCl present in the composition is due to its presence in the available compositions of the fatty acid amido compounds.

[4] = tested on: plaque and/or pellicle growth on polymethyl methacrylate strips; test: Inhibition of plaque/pellicle growth on polymethyl methacrylate strips brushed with the composition (Example 16 procedure); parameters: species or system human saliva; details: second 24 h
[5] = tested on: pellicle and plaque growth on extracted human teeth and plastic strip; test: Inhibition of plaque/pellicle formation on extracted human teeth (mounted on polymethylmethacrylate strip) with composition added to the media (Example 20 procedure); parameters: species or system human saliva / human teeth; details: 0.1 ml of 1% by weight in propylene glycol; second 24 h
Acute oral LD50 study = details: in vivo, rat, palmitic amido betaine purified according to Example 10
Method: An acute oral LD50 study was done on rats for Schercotaine PAB in mature albino rats.
Palmitic amido betaine purified according to Example 10 is also tested according to the above procedure.

Molecule: CCCCCCCCCCCCCCCCCC(=O)NCCC[N+](C)(C)CCC(=O)[O-] [N-carboxyethyl-N,N-dimethyl-N-(3-stearamidopropyl) ammonium betaine]
- pellicle and plaque formation/inhibition on the teeth [1]: inhibits plaque and pellicle formation on the teeth

Molecule: CCCCCCCCCCCCCCCC(=O)NCCC[N+](C)(C)CCC(=O)[O-] [N-carboxyethyl-N,N-dimethyl-N-(3-palmitamidopropyl) ammonium betaine]
- pellicle and plaque formation/inhibition on the teeth [1]: complete inhibition of plaque and pellicle formation on the teeth
- plaque and/or pellicle on the plastic strip ([1]; 0.1 ml of 1% by weight in distilled water, second 24 h): very slight plaque and/or pellicle on the plastic strip

Molecule: CCCCCCCC/C=C\CCCCCCCC(=O)NCCC[N+](C)(C)CCC(=O)[O-] [N-carboxyethyl-N,N-dimethyl-N-(3-oleylamidopropyl) ammonium betaine]
- pellicle and plaque formation/inhibition on the teeth [1]: inhibits plaque and pellicle formation on the teeth

Molecule: CCCCCCCCCCCCCCCCCC(=O)NCCC[N+](C)(C)CC(=O)[O-] [stearic amido betaine]
- plaque inhibition activity [2]: did not exhibit plaque inhibition activity

Molecule: isostearic amido betaine
- plaque inhibition ([2]; about 5% betaine, similar composition with about 0.75% hydroxyethyl cellulose in place of carboxymethyl cellulose): retarded plaque formation and exhibited moderate plaque inhibition
- plaque inhibition activity [2]: did not exhibit plaque inhibition activity
- plaque and pellicle inhibition ([3]; Example 3: about 35% betaine, 2-5% NaCl, remainder water (Schercotaine IAB), second 24 h): good plaque and pellicle inhibition
- pellicle and plaque inhibition ([3]; Example 6: about 5% betaine, 24% glycerin, 0.75% hydroxyethyl cellulose, 1% propylene glycol, up to 5% NaCl, water, second 24 h): moderate pellicle and plaque inhibition
- plaque and pellicle on the teeth ([3]; Example 15: about 14% betaine, 86% water, second 24 h): no plaque and pellicle are present on the teeth
- prevention of plaque and/or pellicle growth ([4]; Example 17C: Denta Fresh ingredients with Tegobetaine C replaced by 15% isostearic amido betaine): does not prevent plaque and/or pellicle growth

Molecule: CCCCCCCC/C=C\CCCCCCCC(=O)NCCC[N+](C)(C)CC(=O)[O-] [oleic amido betaine]
- inhibition of pellicle and plaque growth ([3]; Example 7: about 25% betaine, up to 5% NaCl, water (Schercotaine OAB), second 24 h): almost complete inhibition of pellicle and plaque growth on the teeth

Molecule: CCCCCCCCCCCCCCCC(=O)NCCC[N+](C)(C)CCS(=O)(=O)[O-] [2-[N,N-dimethyl-N-(3-palmitamidopropyl)-amino] ethanesulfobetaine]
- activity against plaque and pellicle formation on the teeth [5]: exhibits activity against plaque and pellicle formation on the teeth
- plaque growth on teeth and plastic [5]: Only slight plaque growth is observed on the teeth and plastic

Molecule: CCCCCCCCCCCCCCCCCC(=O)NCCC[N+](C)(C)C(C)C(=O)[O-] (racemic) [DL-N-carboxymethylmethyl-N,N-dimethyl-N-(3-stearamidopropyl) ammonium betaine]
- pellicle and plaque formation/inhibition on the teeth [1]: slight activity against plaque and pellicle formation on the teeth

Molecule: CCCCCCCC/C=C\CCCCCCCC(=O)NCCC[N+](C)(C)C(C)C(=O)[O-] (racemic) [DL-N-carboxymethylmethyl-N,N-dimethyl-N-(3-oleylamidopropyl) ammonium betaine]
- pellicle and plaque formation/inhibition on the teeth [1]: inhibits plaque and pellicle formation on the teeth

Molecule: CCCCCCCCCCCCCCCC(=O)NCCC[N+](C)(C)C(C)C(=O)[O-] (racemic) [DL-N-carboxymethylmethyl-N,N-dimethyl-N-(3-palmitamidopropyl) ammonium betaine]
- pellicle and plaque formation/inhibition on the teeth [1]: No pellicle and plaque growth are observed on the teeth

Molecule: CCCCCCCCCCCCCCCC(=O)NCCC[N+](C)(C)CC(=O)[O-] [palmitic amido betaine]
- LD50 (Acute oral LD50 study): 2400 mg/kg
- retardation of plaque formation ([2]; about 2.5% betaine, about 10% silica, about 56% sorbitol, up to 5% NaCl, water, with rinsing): did not retard plaque formation
- retardation of plaque formation ([2]; about 2.5% or less betaine, about 10% ethyl alcohol, up to about 5% NaCl, water, with rinsing): did not retard plaque formation
- retardation of plaque formation ([2]; about 5% betaine, about 8% silica, about 50.5% sorbitol, about 36.5% water): marginally effective in that sometimes the composition exhibited retardation of plaque while other times the composition did not
- retardation of plaque formation ([2]; about 5% betaine, about 95% water): retarded plaque formation
- prevention of plaque formation ([2]; same compositions (2.5% or less with ethyl alcohol; 2.5% with silica/sorbitol), no rinsing after treatment): prevented the formation of plaque
- plaque growth on teeth / inhibition of plaque redeposition ([3]; Example 1A: about 25% palmitic amido betaine, 2-5% NaCl, remainder water (Schercotaine PAB), brushed and rinsed, second 24 h at 37° C): effectively inhibits the redeposition of dental plaque on the teeth
- pellicle and plaque inhibition ([3]; Example 2: about 20% betaine, 10% ethyl alcohol, 70% water, second 24 h): provides pellicle and plaque inhibition although not as great as the preparation employed in Example 1A
- prevention of pellicle and plaque formation ([3]; Example 4: about 10% betaine, 8% silica gel (Syloid 244), 36.4% sorbitol, up to 5% NaCl, water, second 24 h): complete prevention of pellicle and plaque formation on the teeth
- pellicle or plaque formation ([3]; Example 5: about 2.5% betaine, 10% ethyl alcohol, up to 5% NaCl, water, brushed and dipped, not rinsed, second 24 h): no pellicle or plaque formation on the set of teeth
- pellicle and plaque inhibition ([3]; Example 8: about 10 parts betaine, 35.7 sorbitol, 8 silica QUSO G-30, 1 propylene glycol, 45 water, second 24 h): complete pellicle and plaque inhibition on the teeth
- inhibition of pellicle and plaque growth ([3]; Example 9: about 10 parts betaine, 35.7 sorbitol, 8 silica QUSO G-32, 1 propylene glycol, 45 water, second 24 h): complete inhibition of pellicle and plaque growth
- inhibition of plaque and pellicle growth ([3]; Example 10: about 10% purified betaine, 90% water, 24 h): complete inhibition of plaque and pellicle growth on the teeth
- inhibition of plaque and pellicle growth ([3]; Example 11: about 5% purified betaine, 95% water, 24 h): partial inhibition of plaque and pellicle growth on the teeth
- inhibition of pellicle and plaque growth ([3]; Example 12: about 30 parts betaine in paste with sorbitol, glycerin, carboxymethyl cellulose, Syloid 244, hydrated alumina, pH about 6.4, second 24 h): complete inhibition of pellicle and plaque growth on the teeth
- plaque and pellicle inhibition ([3]; Example 13: about 25 parts purified betaine in paste with sorbitol, carboxymethyl cellulose, hydrated alumina, Syloid 244, glycerin, second 24 h): complete plaque and pellicle inhibition on the teeth
- inhibition of plaque and pellicle growth ([3]; Example 14: about 30 parts purified betaine in paste with Pluronic F-68, sorbitol, carboxymethyl cellulose, hydrated alumina, Syloid 244, second 24 h): complete inhibition of plaque and pellicle growth on the teeth
- prevention of plaque and/or pellicle growth ([4]; Example 17B: Denta Fresh ingredients with Tegobetaine C replaced by 15% palmitic amido betaine): does not prevent plaque and/or pellicle growth

Molecule: CCCCCCCC/C=C\CCCCCCCC(=O)NCCC[N+](C)(C)CCS(=O)(=O)[O-] [2-[N,N-dimethyl-N-(3-oleylamidopropyl)-amino] ethanesulfobetaine]
- activity against plaque and pellicle formation on the teeth [5]: exhibits activity against plaque and pellicle formation on the teeth
- plaque growth on teeth and plastic [5]: Very slight plaque growth is observed on teeth and plastic
